Values quoted from earlier work, collected in patent US20080076825A1, “Novel Crystalline Forms of Entacapone and Production Thereof” (priority 2003, published 2008).

Assays:
[1] = tested on: Parkinson's disease; conditions: in combination with levodopa and a decarboxylase inhibitor; by lengthening the dosage interval and/or reducing the single dose
[2] = commercially available entacapone

bioavailability [2]: 35%
Compound: CCN(CC)C(=O)/C(C#N)=C/c1cc(O)c(O)c([N+](=O)[O-])c1 [entacapone, (E)-N,N-diethyl-2-cyano-3-(3,4-dihydroxy-5-nitrophenyl)acrylamide]
reduction of the amount of L-dopa to be administered [1]: 10-30%
